EC50 and Ki data for 31 compounds are collected here from BindingDB's records for doi:10.1124/mol.112.080291 (University of California San Diego, 2014).

As a reminder, the EC50 is the midpoint of the concentration-response curve. As usually defined, the Ki is the equilibrium dissociation constant of an inhibitor or competing ligand from its target.

SMILES strings stand for the structures. Several values for one entry are separate records, joined by “and”; a condition that tells them apart may be missing. Equal values may be shown once.

Holding throughout (experiment): Synthesizing Selective Agonists for the ?7 Nicotinic Receptor with in situ Click-Chemistry on Acetylcholine Binding Protein Templates.
Assay [1] concerns the target Neuronal acetylcholine receptor subunit alpha-7 (Homo sapiens, UniProt P36544). As to conditions: pH 7.4; 37 °C. As to the method:
(§1) Assay Description 2 Assays used to generate Ki or EC50 values. 1) SPA Assay - Quick screen binding assays were performed using 100 l of 0.2 mg/ml anti-mouse SPA antibody-binding beads (Amersham Biosciences) mixed with 33.6 g of monoclonal anti-FLAG M2 antibody from mouse (Sigma) in 0.1 M NaPO4 buffer, pH 7.0 (SPA mixture). Media (5l) collected 2 days after transfection were added to the mixture and finally 10 l of (+)-[3H]epibatidine (PerkinElmer Life Sciences) was added at a final concentration of 10 nM. Solutions were each counted for 1 min on either a Beckman LS 6500 liquid scintillation counter or Wallac 1450 Microbeta Trilux. Negative and positive controls consisted of media (5 l) from the respective transfections. Nonexpressing mutants were transfected and verified de novo in triplicate. Western immunoblots were also performed upon media (15 l) from transfections to verify the lack of expression. Competition curves and direct binding were measured following the protocol p

Assay [2] deals with T1, 5-hydroxytryptamine receptor 3A (Mus musculus, UniProt P23979).
T1 sequence (P23979 whole entry): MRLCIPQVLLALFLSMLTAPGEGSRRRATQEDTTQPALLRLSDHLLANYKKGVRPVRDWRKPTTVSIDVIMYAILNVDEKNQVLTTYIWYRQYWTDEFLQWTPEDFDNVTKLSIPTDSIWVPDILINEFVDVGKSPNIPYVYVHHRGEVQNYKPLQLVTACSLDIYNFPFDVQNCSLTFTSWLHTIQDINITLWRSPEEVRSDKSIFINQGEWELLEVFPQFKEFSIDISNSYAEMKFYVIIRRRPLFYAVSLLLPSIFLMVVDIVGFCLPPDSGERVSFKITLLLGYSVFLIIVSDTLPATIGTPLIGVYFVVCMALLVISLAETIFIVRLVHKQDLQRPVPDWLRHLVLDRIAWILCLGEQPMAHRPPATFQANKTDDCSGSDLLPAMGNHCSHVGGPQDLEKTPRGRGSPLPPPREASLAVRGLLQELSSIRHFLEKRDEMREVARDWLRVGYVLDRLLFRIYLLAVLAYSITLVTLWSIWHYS
Particulars: pH 7.4; 37 °C. As for the experimental part:
as §1

In assay [3] the target is Neuronal acetylcholine receptor subunit alpha-4 (Homo sapiens, UniProt P43681). As to conditions: pH 7.4; 37 °C. As to the method:
as §1

Assay [4] has as its target Acetylcholine-binding protein (Lymnaea stagnalis, UniProt P58154). Particulars: pH 7.4; 20 °C. As for the experimental part: as §1
The target in assay [5] is T2, Soluble acetylcholine receptor (Aplysia californica, UniProt Q8WSF8).
T2 sequence (Q8WSF8 whole entry): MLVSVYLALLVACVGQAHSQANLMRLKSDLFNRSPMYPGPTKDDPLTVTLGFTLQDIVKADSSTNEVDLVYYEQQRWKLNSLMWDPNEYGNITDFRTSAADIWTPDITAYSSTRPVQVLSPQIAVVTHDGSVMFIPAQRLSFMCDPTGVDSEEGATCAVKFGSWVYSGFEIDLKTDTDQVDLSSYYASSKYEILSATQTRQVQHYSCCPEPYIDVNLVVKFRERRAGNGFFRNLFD
As to conditions: pH 7.4; 20 °C. As for the experimental part:
as §1

Chain of Acetylcholine-binding protein (P58154 whole entry): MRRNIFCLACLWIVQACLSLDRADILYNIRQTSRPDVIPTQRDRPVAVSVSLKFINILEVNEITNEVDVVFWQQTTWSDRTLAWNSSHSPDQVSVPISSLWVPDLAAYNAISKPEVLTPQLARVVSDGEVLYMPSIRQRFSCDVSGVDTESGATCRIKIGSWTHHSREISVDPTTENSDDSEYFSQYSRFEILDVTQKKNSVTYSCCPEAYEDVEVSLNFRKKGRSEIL
Chain of Neuronal acetylcholine receptor subunit alpha-7 (P36544 whole entry): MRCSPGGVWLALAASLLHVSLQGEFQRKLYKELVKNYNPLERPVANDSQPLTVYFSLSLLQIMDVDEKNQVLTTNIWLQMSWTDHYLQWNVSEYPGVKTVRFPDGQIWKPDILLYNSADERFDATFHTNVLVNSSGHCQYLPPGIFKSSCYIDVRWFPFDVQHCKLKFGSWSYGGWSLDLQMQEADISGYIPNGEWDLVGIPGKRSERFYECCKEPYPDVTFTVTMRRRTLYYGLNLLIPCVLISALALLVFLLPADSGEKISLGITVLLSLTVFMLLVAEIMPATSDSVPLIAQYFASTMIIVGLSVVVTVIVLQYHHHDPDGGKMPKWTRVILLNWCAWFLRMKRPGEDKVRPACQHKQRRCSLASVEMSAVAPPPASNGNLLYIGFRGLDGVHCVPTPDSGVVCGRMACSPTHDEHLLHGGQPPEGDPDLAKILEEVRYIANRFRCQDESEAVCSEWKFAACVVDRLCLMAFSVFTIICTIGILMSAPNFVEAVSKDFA
Chain of Neuronal acetylcholine receptor subunit alpha-4 (P43681 whole entry): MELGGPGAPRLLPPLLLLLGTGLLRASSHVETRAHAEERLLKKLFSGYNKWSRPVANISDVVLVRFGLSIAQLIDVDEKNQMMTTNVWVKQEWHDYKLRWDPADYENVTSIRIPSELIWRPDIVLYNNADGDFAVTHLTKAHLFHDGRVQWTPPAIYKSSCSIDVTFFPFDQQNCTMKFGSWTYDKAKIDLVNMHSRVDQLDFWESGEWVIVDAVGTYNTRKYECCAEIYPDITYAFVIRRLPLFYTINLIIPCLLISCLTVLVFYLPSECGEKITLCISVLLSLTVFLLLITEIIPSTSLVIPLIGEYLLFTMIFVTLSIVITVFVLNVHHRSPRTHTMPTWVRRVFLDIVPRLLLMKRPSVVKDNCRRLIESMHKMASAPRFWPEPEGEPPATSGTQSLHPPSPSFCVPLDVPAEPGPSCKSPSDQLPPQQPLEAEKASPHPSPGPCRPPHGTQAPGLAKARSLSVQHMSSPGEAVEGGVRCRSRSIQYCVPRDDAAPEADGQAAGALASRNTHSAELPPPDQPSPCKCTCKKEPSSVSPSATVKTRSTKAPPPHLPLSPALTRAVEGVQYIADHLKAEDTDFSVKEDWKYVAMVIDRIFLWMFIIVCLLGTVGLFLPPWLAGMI

In assay [1], `C[N+](C)(C)CCn1cc(COc2cc([O])nc3ccccc23)nn1` [alpha7 agonists 6] came in with a 50% effective concentration (EC50) of 1.7 µM. In addition, the inhibition constant Ki in assay [2] is more than 30 µM; in assay [3], 14 µM.
For the compound `CN1[C@@H]2CC[C@H]1C[C@H](n1cc(COc3cc(=O)n(C)c4ccccc34)nn1)C2` [alpha7 agonists 4t], the figures for the Ki in assay [4], in assay [2] and in assay [3] were 0.0013 µM, 15 µM and 14 µM, respectively. Also, it took 11 µM to reach a half-maximal effect in assay [1] (EC50).
For `COc1ccc(C=O)c(OCc2cn([C@@H]3C[C@H]4CC[C@@H](C3)N4C)nn2)c1` [13t], the Ki was found to be 0.026 µM in assay [4], 5 µM in assay [2] and 5 µM in assay [3]. The compound also returned a half-maximal effective concentration (EC50) in assay [1] of more than 30 µM.
Turning to `CC(=O)NCc1cn([C@@H]2C[C@H]3CC[C@@H](C2)N3C)nn1` [10t], the Ki in assay [4] is 0.9 µM; in assay [2], more than 30 µM; in assay [3], 18 µM; in assay [5] it was more than 5 µM. Also, the EC50 in assay [1] was more than 30 µM.
Consider `Cc1cc(C)nc(SCCCc2cn([C@@H]3C[C@H]4CC[C@@H](C3)[N+]4(C)C)nn2)n1` [21q], for which the inhibition constant (Ki) was 0.04 µM in assay [4], more than 30 µM in assay [2] and 27.1 µM in assay [3]. In assay [1], this compound displayed an EC50 of 3 µM.
For `C[N+]1(C)[C@@H]2CC[C@H]1C[C@H](n1cc(C3(O)CCCCC3)nn1)C2` [11q] the same measures were more than 5 µM, more than 30 µM, more than 30 µM and 9 µM.
As to `CCC[N+](C)(C)CCn1nncc1COc1cc(=O)n(C)c2ccccc12` [2'], the Ki in assay [4] was 0.04 µM; in assay [2], more than 30 µM; in assay [3], more than 30 µM; in assay [5], 0.8 µM and 0.21 µM. Also, in assay [1], a half-maximal effect (EC50) was put at 4.2 µM.
As for `Cn1c(=O)cc(OCc2cnnn2CCC[N+]2(C)CCCC2)c2ccccc21` [5'], the Ki in assay [4] was 0.6 µM; in assay [2], more than 30 µM; in assay [3], 40 µM; in assay [5] it was 1.4 µM and 0.8 µM. The compound also displayed an EC50 in assay [1] of 2 µM.
Turning to `CN1CC=C(OCc2cnnn2C2CC3CCC(C2)[N+]3(C)C)c2ccccc21` (stereo unspecified) [4'], the Ki in assay [4] was 0.002 µM; in assay [2], 0.9 µM; in assay [3] it was 23 µM; in assay [5] it was 0.3 µM and 0.1 µM. For the same compound, the EC50 in assay [1] was found to be 0.6 µM.
Turning to `O=c1cc(OCc2cnnn2CC[N+]23CCC(CC2)CC3)c2ccccc2[nH]1` [3'], the inhibition constant Ki is 0.024 µM in assay [4]; more than 30 µM in assay [2]; 30 µM in assay [3]; 0.25 µM and 0.29 µM in assay [5]. The compound also showed an EC50 in assay [1] of 2.9 µM.
Consider `CN1[C@@H]2CC[C@H]1C[C@H](n1cc(CNS(=O)(=O)c3ccc([N+](=O)[O-])cc3)nn1)C2` [16t], for which the inhibition constant (Ki) is more than 5 µM in assay [4], more than 30 µM in assay [2], more than 30 µM in assay [3] and more than 5 µM in assay [5]. This compound gave an EC50 in assay [1] of 5 µM.
For the compound `CN1[C@@H]2CC[C@H]1C[C@H](n1cc(C(O)(c3ccccc3)C(F)(F)F)nn1)C2` (stereo partly specified) [19t], the Ki in assay [4] is more than 5 µM; in assay [2], more than 30 µM; in assay [3], more than 30 µM; in assay [5] it was more than 5 µM. The compound further displayed a 50% effective concentration (EC50) in assay [1] of more than 30 µM.
In assay [1], `Cn1c(=O)cc(OCc2cn(CC[N+]34CCC(CC3)CC4)nn2)c2ccccc21` [alpha7 agonists 3] returned an EC50 of 1.8 µM. Further, the results for the Ki in assay [2] and in assay [3] were more than 30 µM and 8 µM, respectively.
As to `CC(=O)c1c(OCc2cn([C@@H]3C[C@H]4CC[C@@H](C3)N4C)nn2)ccc2ccccc12` [22t], the inhibitory constant (Ki) in assay [4] is 0.141 µM; in assay [2], 12 µM; in assay [3], 12 µM; in assay [5], 0.8 µM and 0.7 µM and > 5 µM. In assay [1], this compound returned a concentration giving a half-maximal response (EC50) of 9 µM.
Take `C[N+]1(C)[C@@H]2CC[C@H]1C[C@H](n1cc(C3(O)c4ccccc4-c4ccccc43)nn1)C2` [20q]: the Ki in assay [4] was 0.05 µM; in assay [2], more than 30 µM; in assay [3], 15 µM; in assay [5], 0.4 µM and 0.6 µM and 0.12 µM. Further, a half-maximal response in assay [1] (EC50) required 4 µM.
As to `C[N+]1(C)[C@@H]2CC[C@H]1C[C@H](n1cc(CNC(=O)N3c4ccccc4CCc4ccccc43)nn1)C2` [23q], the Ki in assay [4] is 0.5 µM; in assay [2], more than 30 µM; in assay [3] it was 30 µM; in assay [5], 0.42 µM and 1 µM and 2 µM. In assay [1], this compound gave an EC50 of 8 µM.
Regarding `CN1[C@@H]2CC[C@H]1C[C@H](n1cc(-c3cc(C(F)(F)F)cc(C(F)(F)F)c3)nn1)C2` [17t], the Ki in assay [4] is 0.6 µM; in assay [2] it was more than 30 µM; in assay [3], more than 30 µM; in assay [5], 1.1 µM and > 5 µM. The EC50 in assay [1] is more than 30 µM.
Take `C[N+]1(C)[C@@H]2CC[C@H]1C[C@H](n1cc(COc3ccccc3-c3ccno3)nn1)C2` [14q]: the Ki in assay [4] was 0.05 µM; in assay [2], more than 30 µM; in assay [3] it was more than 30 µM; in assay [5], 0.14 µM and 0.17 µM and 0.096 µM. The compound further came in with an EC50 in assay [1] of 2 µM.
`COc1cc(C=O)ccc1OCc1cn([C@@H]2C[C@H]3CC[C@@H](C2)[N+]3(C)C)nn1` [alpha7 agonists 8]: in assay [1], it took 1 µM to reach a half-maximal effect (EC50). In addition, the inhibition constant Ki in assay [2] was more than 30 µM; in assay [3] it was 6 µM.
As to `C[N+]1(C)[C@@H]2CC[C@H]1C[C@H](n1cc(CNS(=O)(=O)c3ccc([N+](=O)[O-])cc3)nn1)C2` [16q], the Ki in assay [4] was more than 5 µM; in assay [2], more than 30 µM; in assay [3], more than 30 µM; in assay [5], 0.62 µM and 0.8 µM and 0.6 µM. The same compound had an EC50 in assay [1] of 1.8 µM.
Take `Cn1c(=O)cc(OCc2cn(CCC[N+]3(C)CCCC3)nn2)c2ccccc21` [alpha7 agonists 5]: in assay [1], the EC50 was 0.8 µM. Besides, the inhibition constant Ki is more than 30 µM in assay [2] and 18 µM in assay [3].
As for `C[N+]1(C)[C@@H]2CC[C@H]1C[C@H](n1cc(CNC(=O)c3ccco3)nn1)C2` [12q], the Ki in assay [4] is 0.4 µM; in assay [2], more than 30 µM; in assay [3] it was more than 30 µM; in assay [5] it was 0.6 µM and 1 µM and 0.7 µM. The compound further gave an EC50 in assay [1] of 3 µM.
With `C[N+]1(C)[C@@H]2CC[C@H]1C[C@H](n1cc(-c3cc(C(F)(F)F)cc(C(F)(F)F)c3)nn1)C2` [17q], the Ki in assay [4] is 0.13 µM; in assay [2], 8 µM; in assay [3], 5 µM; in assay [5], 0.11 µM and 0.3 µM and 0.4 µM. This compound returned an EC50 in assay [1] of 0.9 µM.
As for `CN1[C@@H]2CC[C@H]1C[C@H](n1cc(COc3ccccc3-c3ccno3)nn1)C2` [14t], the results for the Ki in assay [4], in assay [2] and in assay [3] were 0.025 µM, more than 30 µM and more than 30 µM, respectively. The same compound came in with an EC50 in assay [1] of more than 30 µM.
For `Cn1c(=O)cc(OCc2cn(CC[N+]3(C)CCCCC3)nn2)c2ccccc21` [alpha7 agonists 2], the EC50 in assay [1] amounted to 1.2 µM. Besides, the figures for the Ki in assay [2] and in assay [3] were more than 30 µM and 12 µM, respectively.
As to `C[N+]1(C)[C@@H]2CC[C@H]1C[C@H](n1cc(C(O)(c3ccccc3)C(F)(F)F)nn1)C2` (stereo partly specified) [19q], the Ki in assay [4] is 0.12 µM; in assay [2] it was more than 30 µM; in assay [3], 22 µM. The EC50 in assay [1] amounted to 2 µM.
In turn, `Cn1c(=O)cc(OCc2cn([C@@H]3C[C@H]4CC[C@@H](C3)[N+]4(C)C)nn2)c2ccccc21` [alpha7 agonists 4] yielded an EC50 in assay [1] of 0.3 µM. Further, the Ki in assay [2] came out at 34 µM; in assay [3], 4 µM.
Turning to `CN1[C@@H]2CC[C@H]1C[C@H](n1cc(COc3ccccc3C3CCCC3)nn1)C2` [18t], the results for the inhibitory constant (Ki) in assay [4], in assay [2] and in assay [3] were 0.03 µM, 12 µM and 12 µM, respectively. In addition, the EC50 in assay [1] was more than 30 µM.
`C[N+]1(C)[C@@H]2CC[C@H]1C[C@H](n1cc(COc3cccc(C#N)c3)nn1)C2` [alpha7 agonists 7] gave an EC50 in assay [1] of 0.9 µM. The Ki in assay [2] and in assay [3] was more than 30 µM throughout.
`Cc1cc([N+](=O)[O-])ccc1OCc1cn([C@@H]2C[C@H]3CC[C@@H](C2)[N+]3(C)C)nn1` [alpha7 agonists 9] displayed an EC50 in assay [1] of 1.9 µM. Moreover, the Ki in assay [2] is more than 30 µM; in assay [3], 14 µM.
Turning to `Cc1cc(C)nc(SCCCc2cn([C@@H]3C[C@H]4CC[C@@H](C3)N4C)nn2)n1` [21t], the Ki is 0.3 µM in assay [4], more than 30 µM in assay [2] and more than 30 µM in assay [3]. In addition, the EC50 in assay [1] was more than 30 µM.
